# Laboratory results taken from patent US20240327393A1 (SIRONAX LTD., priority 2021, published 2024).
# System: HT-1080 (ATCC, CCL-121) cells
# Test: HT-1080 cell viability assay with ferroptosis inducer RSL3 (Cell Titer-Glo)
# Assay type: cell-based
# Details: Homo sapiens; HT-1080 cells treated with RSL3; 3-fold, 10-point dilution, 1.1 μM highest concentration; Table 2; read-out: EC50 (nM), ferroptosis inhibitory activity
# Procedure, shortened: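 HT-1080 cells (6000 per well) were cultured overnight at 37 °C, then co-treated with RSL3 and compound in a 3-fold, 10-point series topping at 1.1 μM. Viability was read by CellTiter-Glo luminescence and normalized to untreated controls. EC50 came from a sigmoidal non-linear regression fit.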
row,Structure (SMILES),EC50
1,"CN(C)c1ccc(Nc2ccc3c(c2)n(C)c(=O)n3C)cc1 [Compound 284, 5-((4-(dimethylamino)phenyl)amino)-1,3-dimethyl-1,3-dihydro-2H-benzo[d]imidazol-2-one]",0.1 to 100 nM
2,"CC1CC(c2ccc(Nc3ccc4c(c3)OCC(=O)N4)cc2)CC(C)O1 (stereo not shown) [Compound 92, 7-((4-(2,6-dimethyltetrahydro-2H-pyran-4-yl)phenyl)amino)-2H-benzo[b][1,4]oxazin-3(4H)-one]",0.1 to 100 nM
3,"Cn1c(=O)n(C)c2cc(Nc3ccc(-n4ccnc4)cc3)ccc21 [Compound 305, 5-((4-(1H-imidazol-1-yl)phenyl)amino)-1,3-dimethyl-1,3-dihydro-2H-benzo[d]imidazol-2-one]",100 to 1000 nM
4,"CCNC(=O)c1cn(C)c2ccc(Nc3ccc(N4CCC(C)CC4)cc3)cc12 [Compound 365, N-ethyl-1-methyl-5-((4-(4-methylpiperidin-1-yl)phenyl)amino)-1H-indole-3-carboxamide]",0.1 to 100 nM
5,"CCN1C(=O)COc2cc(Nc3ccc(N4CCC(C(F)(F)F)CC4)nc3)ccc21 [Compound 24, 4-ethyl-7-((6-(4-(trifluoromethyl)piperidin-1-yl)pyridin-3-yl)amino)-2H-benzo[b][1,4]oxazin-3(4H)-one]",0.1 to 100 nM

# More lines, now with the values ahead:
row,EC50,Structure (SMILES)
1,0.1 to 100 nM,"Cn1c(=O)n(C)c2cc(Nc3ccc(N4CCC(C(F)(F)F)CC4)cc3)ccc21 [Compound 220, 1,3-dimethyl-5-((4-(4-(trifluoromethyl)piperidin-1-yl)phenyl)amino)-1,3-dihydro-2H-benzo[d]imidazol-2-one]"
2,0.1 to 100 nM,"COc1cc(Nc2ccc3c(c2)OCC(=O)N3C)ccc1N1CCC(C(F)(F)F)CC1 [Compound 91, 7-((3-methoxy-4-(4-(trifluoromethyl)piperidin-1-yl)phenyl)amino)-4-methyl-2H-benzo[b][1,4]oxazin-3(4H)-one]"
3,0.1 to 100 nM,"NC(=O)NCCn1cc2cc(Nc3ccc(N4CCC(C(F)(F)F)CC4)cc3)ccc2n1 [Compound 419, 1-(2-(5-((4-(4-(trifluoromethyl)piperidin-1-yl)phenyl)amino)-2H-indazol-2-yl)ethyl)urea]"
4,0.1 to 100 nM,"CN(C)CCn1c(=O)oc2ccc(Nc3ccc(N4CCC(C(F)(F)F)CC4)cc3)cc21 [Compound 429, 3-(2-(dimethylamino)ethyl)-5-((4-(4-(trifluoromethyl)piperidin-1-yl)phenyl)amino)benzo[d]oxazol-2(3H)-one]"
5,0.1 to 100 nM,"COC1(C(F)(F)F)CCN(c2ccc(Nc3ccc4c(c3)oc(=O)n4C)cc2)CC1 [Compound 386, 6-((4-(4-methoxy-4-(trifluoromethyl)piperidin-1-yl)phenyl)amino)-3-methylbenzo[d]oxazol-2(3H)-one]"
6,0.1 to 100 nM,"Cc1cc(N2CC(C)OC(C)C2)ccc1Nc1ccc2[nH]ncc2c1 (stereo not shown) [Compound 443, N-(4-(2,6-dimethylmorpholino)-2-methylphenyl)-1H-indazol-5-amine]"
7,0.1 to 100 nM,"CC1CCN(c2ccc(Nc3ccc4c(c3)c(C(=O)O)cn4C)cc2)CC1 [Compound 353, 1-methyl-5-((4-(4-methylpiperidin-1-yl)phenyl)amino)-1H-indole-3-carboxylic acid]"
8,0.1 to 100 nM,"Fc1cc(Nc2ccc3c(c2)CN(CC2CC2)C3)cnc1N1CCCCC1 [Compound 196, 2-(cyclopropylmethyl)-N-(5-fluoro-6-(piperidin-1-yl)pyridin-3-yl) isoindolin-5-amine]"
9,0.1 to 100 nM,"CN1Cc2cc(Nc3ccc(N4CCC(C(F)(F)F)CC4)cc3)ccc2C1=O [Compound 173, 2-methyl-5-((4-(4-(trifluoromethyl)piperidin-1-yl)phenyl)amino) isoindolin-1-one]"
10,0.1 to 100 nM,"COc1c(Nc2ccc(N3CCC(C(F)(F)F)CC3)cc2)ccc2c1CN(C)C2=O [Compound 301, 4-methoxy-2-methyl-5-((4-(4-(trifluoromethyl)piperidin-1-yl)phenyl)amino)isoindolin-1-one]"
11,0.1 to 100 nM,"CC1CCCN(c2ccc(Nc3ccc4c(c3)CN(C)C4=O)cc2)C1 (stereo not shown) [Compound 241, 2-methyl-5-((4-(3-methylpiperidin-1-yl)phenyl)amino)isoindolin-1-one]"
12,0.1 to 100 nM,"CC1CCN(c2ccc(Nc3ccc4c(c3)n(C)c(=O)n4C)cc2Cl)CC1 [Compound 298, 5-((3-chloro-4-(4-methylpiperidin-1-yl)phenyl)amino)-1,3-dimethyl-1,3-dihydro-2H-benzo[d]imidazol-2-one]"
13,0.1 to 100 nM,"CN1C(=O)NCc2cc(Nc3ccc(N4CCC(C(F)(F)F)CC4)cc3)ccc21 [Compound 137, 1-methyl-6-((4-(4-(trifluoromethyl)piperidin-1-yl)phenyl)amino)-3,4-dihydroquinazolin-2(1H)-one]"
14,0.1 to 100 nM,"NC(=O)CN1C(=O)COc2cc(Nc3ccc(N4CCC(C(F)(F)F)CC4)cc3)ccc21 [Compound 14, 2-(3-oxo-7-((4-(4-(trifluoromethyl)piperidin-1-yl)phenyl)amino)-2,3-dihydro-4H-benzo[b][1,4]oxazin-4-yl)acetamide]"
15,0.1 to 100 nM,"COCCCN1C(=O)COc2cc(Nc3ccc(N4CCC(C(F)(F)F)CC4)cc3)ccc21 [Compound 10, 4-(3-methoxypropyl)-7-((4-(4-(trifluoromethyl)piperidin-1-yl)phenyl)amino)-2H-benzo[b][1,4]oxazin-3(4H)-one]"
16,0.1 to 100 nM,"CN1Cc2cc(Nc3ccc(N(C)C)cc3)ccc2C1=O [Compound 227, 5-((4-(dimethylamino)phenyl)amino)-2-methylisoindolin-1-one]"

# Same assay, conditions: Homo sapiens; HT-1080 cells treated with RSL3; 3-fold, 10-point dilution, 1.1 μM highest concentration; Table 3; read-out: EC50 (nM), ferroptosis inhibitory activity
row,EC50,Structure (SMILES)
1,0.1 to 100 nM,"Cc1cc(N2CCC(O)(C(F)(F)F)C2)ccc1Nc1ccc2c(c1)OCC(=O)N2 (stereo not shown) [Compound 617, 7-((4-(3-hydroxy-3-(trifluoromethyl)pyrrolidin-1-yl)-2-methylphenyl)amino)-2H-benzo[b][1,4]oxazin-3(4H)-one]"
2,0.1 to 100 nM,"Cc1cc(N2CC(C(F)F)C2)ccc1Nc1ccc2c(c1)OCC(=O)N2 [Compound 655, 7-[4-[3-(difluoromethyl)azetidin-1-yl]-2-methyl-anilino]-4H-1,4-benzoxazin-3-one]"
3,0.1 to 100 nM,"Cc1cc(N2CCC2)ccc1Nc1ccc2c(c1)OCCC(=O)N2 [Compound 586, 8-((4-(azetidin-1-yl)-2-methylphenyl)amino)-2,3-dihydrobenzo[b][1,4]oxazepin-4(5H)-one]"
4,0.1 to 100 nM,"Cc1cc(N2CCC(C(F)(F)F)CC2)ccc1Nc1ccn2ncc(C(N)=O)c2c1 [Compound 625, 5-((2-methyl-4-(4-(trifluoromethyl)piperidin-1-yl)phenyl)amino) pyrazolo[1,5-a]pyridine-3-carboxamide]"
5,0.1 to 100 nM,"Cc1cc(N2CCOC(C)C2)ccc1Nc1ccc2c(c1)CCNC2 (stereo not shown) [Compound 529, N-(2-methyl-4-(2-methylmorpholino)phenyl)-1,2,3,4-tetrahydroisoquinolin-6-amine]"
6,0.1 to 100 nM,"Cc1nc(N2CCN(CC(F)(F)F)CC2)ccc1Nc1ccc2c(c1)OCC(=O)N2 [Compound 521, 7-((2-methyl-6-(4-(2,2,2-trifluoroethyl)piperazin-1-yl)pyridin-3-yl)amino)-2H-benzo[b][1,4]oxazin-3(4H)-one]"
7,0.1 to 100 nM,"Cc1cc(N2CCC(C(F)(F)F)CC2)ccc1Nc1ccc2c(c1)OC(CN)C(=O)N2C (stereo not shown) [Compound 607, 2-(aminomethyl)-4-methyl-7-((2-methyl-4-(4-(trifluoromethyl)piperidin-1-yl)phenyl)amino)-2H-benzo[b][1,4]oxazin-3(4H)-one]"
